Patent US20110028447A1, “INDAZOLE DERIVATIVES” (Pfizer Inc., priority 2008, published 2011)
Where two headings read alike, the source gives them in different places.

Experiments:
[1] = target: T1, human CB1 receptor (Homo sapiens, UniProt P21554); test: [35S] GTPγS binding on membranes of CHO cells expressing the human CB1 receptor (agonism); type: biochemical; set-up: expressed in transfected cells; membrane preparation
Method in brief: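 Membranes from human CB1-expressing CHO cells (5 μg/well) incubated with test compound and [35S]GTPγS in 50 mM Tris pH 7.4, 100 mM NaCl, 3 mM MgCl2, 0.2 mM EGTA, 0.04% BSA for 45 min at 37 °C. Bound label collected by filtration, scintillation counted; EC50 from curve fits.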

[2] = target: T1, human CB1 receptor; test: Human CB1 receptor binding, [3H] CP-55,940 displacement on HEK cell membranes; set-up: expressed in transfected cells; host or cells: HEK cells, doxycycline-induced; membrane preparation
Method in brief: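 Membranes from doxycycline-induced HEK cells expressing human CB1 incubated 60 min at room temperature with [3H] CP-55,940 (final […]) in 50 mM Tris pH 7.4, 100 mM NaCl, 3 mM MgCl2, 0.2 mM EGTA, 0.04% BSA. Nonspecific binding defined with 50 μM WIN-55,212-2; filtration and scintillation counting gave EC50 and Ki.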

[3] = GTPγS EC50, human CB1, CHO cell membranes
[4] = human CB1, CHO cell membranes, read-out: GTPγS EC50

T1 sequence (P21554 whole entry): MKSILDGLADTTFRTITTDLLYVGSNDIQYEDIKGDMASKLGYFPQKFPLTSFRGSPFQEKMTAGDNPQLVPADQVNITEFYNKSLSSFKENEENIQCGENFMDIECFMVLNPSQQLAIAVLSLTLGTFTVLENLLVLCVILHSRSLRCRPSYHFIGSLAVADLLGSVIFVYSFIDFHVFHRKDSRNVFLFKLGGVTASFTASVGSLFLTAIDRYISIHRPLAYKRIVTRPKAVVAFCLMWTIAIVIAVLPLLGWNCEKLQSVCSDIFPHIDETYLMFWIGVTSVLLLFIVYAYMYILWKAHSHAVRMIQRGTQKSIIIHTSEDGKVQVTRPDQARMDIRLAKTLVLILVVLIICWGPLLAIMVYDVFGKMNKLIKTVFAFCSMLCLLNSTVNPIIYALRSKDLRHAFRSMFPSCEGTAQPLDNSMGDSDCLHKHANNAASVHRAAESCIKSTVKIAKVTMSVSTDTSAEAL

Compound	EC50 [1, 3] [nM]	Ki ([2]; CB1 Ki) [nM]	EC50 [1, 4] [nM]	Ki ([2]; read-out: CB1 Ki) [nM]
CC(C)(C)[C@H](NC(=O)c1nn(Cc2ccc(C#N)cc2)c2cc(F)ccc12)C(N)=O [Example 300]	121	5.85	–	–
CC(C)NC(=O)OC1CCN(C(=O)[C@@H](NC(=O)c2nn(Cc3ccc(F)cc3)c3ccccc23)C(C)(C)C)CC1 [Example 302]	–	–	33.1	5.41
CCNC(=O)OC1CCN(C(=O)[C@@H](NC(=O)c2nn(Cc3ccc(F)cc3)c3ccccc23)C(C)(C)C)CC1 [Example 303]	–	–	11	2.27
CC(C)(C)[C@H](NC(=O)c1nn(Cc2ccc(F)cc2)c2ccccc12)C(=O)NCC1=NCCN1 [Example 305]	86.4	18	–	–
CC(C)(C)[C@H](NC(=O)c1nn(Cc2ccc(F)cc2)c2ccccc12)C(=O)N1CCC[C@H]1CO [Example 306]	1.39	0.78	–	–
CC(C)(C)[C@H](NC(=O)c1nn(Cc2ccc(F)cc2)c2ccccc12)C(=O)N1CCC[C@@H]1CO [Example 307]	1.56	1.27	–	–
CC(C)(C)[C@H](NC(=O)c1nn(Cc2ccc(C#N)cc2)c2ccccc12)C(=O)NCC(F)(F)F [Example 308]	5.55	2.63	–	–
CC(C)(C)[C@H](NC(=O)c1nn(Cc2ccc(C#N)cc2)c2c(F)cccc12)C(=O)NCC(F)(F)F [Example 309]	2.59	1.59	–	–
CC(C)(C)[C@H](NC(=O)c1nn(Cc2ccc(C#N)cc2)c2cc(F)ccc12)C(=O)NCC(F)(F)F [Example 310]	2.1	1.48	–	–
CC(C)(C)[C@H](NC(=O)c1nn(Cc2ccc(F)cc2)c2ccccc12)C(=O)NCC1CNC(=O)O1 (stereo partly shown) [Example 315]	8.67	2.91	–	–
CC(=O)N1CCC(NC(=O)[C@@H](NC(=O)c2nn(Cc3ccc(F)cc3)c3ccccc23)C(C)(C)C)C1 (stereo partly shown) [Example 320]	–	–	63.2	12
CC(C)(C)[C@H](NC(=O)c1nn(Cc2ccc(F)cc2)c2c(F)c(F)ccc12)C(=O)NCC(N)=O [Example 321]	16.6	1.58	–	–
CC(C)(C)[C@H](NC(=O)c1nn(Cc2ccc(F)cc2)c2c(F)c(F)ccc12)C(=O)NC[C@@H](O)CO [Example 322]	109	8.89	–	–
CC(C)(C)[C@H](NC(=O)c1nn(Cc2ccc(F)cc2)c2c(F)c(F)ccc12)C(=O)NC[C@H](O)CO [Example 323]	22.5	2.99	–	–
CC(C)(C)[C@H](NC(=O)c1nn(Cc2ccc(F)cc2)c2c(F)c(F)ccc12)C(=O)NCCO [Example 324]	2.6	0.15	–	–
CC(C)(C)[C@H](NC(=O)c1nn(Cc2ccc(F)cc2)c2c(F)c(F)ccc12)C(=O)NC(CO)CO [Example 325]	5.33	1.97	–	–
CC(C)(C)[C@H](NC(=O)c1nn(Cc2ccc(F)cc2)c2c(F)c(F)ccc12)C(=O)NCCS(C)(=O)=O [Example 326]	53.2	15.8	–	–
CC(C)(C)[C@H](NC(=O)c1nn(Cc2ccc(F)cc2)c2c(F)c(F)ccc12)C(=O)NCCS(N)(=O)=O [Example 327]	18.1	4.19	–	–
CC(C)(C)[C@H](NC(=O)c1nn(Cc2ccc(F)cc2)c2c(F)c(F)ccc12)C(=O)NCc1nnc(C(N)=O)o1 [Example 328]	–	–	1.7	0.71
Cc1nnc(CNC(=O)[C@@H](NC(=O)c2nn(Cc3ccc(F)cc3)c3c(F)c(F)ccc23)C(C)(C)C)o1 [Example 329]	8	2.93	–	–
CC(C)(C)[C@H](NC(=O)c1nn(Cc2ccc(F)cc2)c2ccccc12)C(=O)N1CC(F)(F)C1 [Example 330]	0.41	0.2	–	–
CC(C)(C)[C@H](NC(=O)c1nn(Cc2ccc(F)cc2)c2ccccc12)C(=O)N1CCC(F)(F)C1 [Example 331]	9.9	2.2	–	–
CC(C)(C)[C@H](NC(=O)c1nn(Cc2ccc(F)cc2)c2ccccc12)C(=O)N1CCC(F)(F)CC1 [Example 332]	27.3	15	–	–
CC(C)(C)[C@H](NC(=O)c1nn(Cc2ccc(F)cc2)c2ccccc12)C(=O)N1CCCC(F)(F)C1 [Example 333]	3.75	1.49	–	–

Compound	EC50 [1, 3] [nM]	Ki ([2]; CB1 Ki) [nM]	EC50 [1, 4] [nM]	Ki ([2]; read-out: CB1 Ki) [nM]
CC(C)(C)[C@H](NC(=O)c1nn(Cc2ccc(F)cc2)c2ccccc12)C(=O)N1CCC(F)C1 (stereo partly shown) [Example 334]	9.41	1.72	–	–
CC(C)(C)[C@H](NC(=O)c1nn(Cc2ccc(F)cc2)c2ccccc12)C(=O)N1CCC(C#N)CC1 [Example 335]	14.9	3.21	–	–
CC(C)(C)[C@H](NC(=O)c1nn(Cc2ccc(F)cc2)c2ccccc12)C(=O)N1CC(F)C1 [Example 336]	0.52	0.11	–	–
CC(C)(C)[C@H](NC(=O)c1nn(Cc2ccc(F)cc2)c2ccccc12)C(=O)N1CCC(F)(CO)CC1 [Example 337]	–	–	21.1	3.48
CC(C)(O)C1CCN(C(=O)[C@@H](NC(=O)c2nn(Cc3ccc(F)cc3)c3ccccc23)C(C)(C)C)CC1 [Example 338]	–	–	24.9	3.43
CC(C)(C)[C@H](NC(=O)c1nn(Cc2ccc(F)cc2)c2ccccc12)C(=O)NC1CCCOC1 (stereo partly shown) [Example 339]	21.6	5.36	–	–
CC(C)(C)[C@H](NC(=O)c1nn(Cc2ccc(F)cc2)c2ccccc12)C(=O)N1CCC(F)CC1 [Example 341]	13.9	3.74	–	–
CC(C)(C)[C@H](NC(=O)c1nn(Cc2ccc(F)cc2)c2ccccc12)C(=O)N1CC[C@H]1C(N)=O [Example 344]	60.2	10.1	–	–
CC(C)(C)[C@H](NC(=O)c1nn(Cc2ccc(F)cc2)c2ccccc12)C(=O)N1CC(CNS(=O)(=O)C2CC2)C1 [Example 345]	–	–	1.69	0.61
CC(C)(C)[C@H](NC(=O)c1nn(Cc2ccc(F)cc2)c2ccccc12)C(=O)N1CC(CNC(N)=O)C1 [Example 346]	–	–	12.1	5.14
CC(C)(C)[C@H](NC(=O)c1nn(Cc2ccc(F)cc2)c2c(F)cccc12)C(=O)NCCS(N)(=O)=O [Example 348]	19.7	7.83	–	–
CC(C)(C)[C@H](NC(=O)c1nn(Cc2ccc(C#N)cc2)c2c(F)cccc12)C(=O)N1CC(C(N)=O)C1 [Example 352]	49.5	4.14	–	–
CC(C)(C)[C@H](NC(=O)c1nn(Cc2ccc(C#N)cc2)c2ccccc12)C(=O)N[C@H]1C[C@H](O)C1 [Example 354]	> 500	11.7	–	–
CC(C)(C)[C@H](NC(=O)c1nn(Cc2ccc(F)cc2)c2ccccc12)C(=O)NCCS(=O)(=O)N1CCOCC1 [Example 357]	–	–	48.6	2.93
CC(C)(C)[C@H](NC(=O)c1nn(Cc2ccc(C#N)cc2F)c2c(F)c(F)ccc12)C(N)=O [Example 358]	7.46	4.89	–	–
CC(C)(C)[C@H](NC(=O)c1nn(Cc2ccc(C#N)cc2F)c2c(F)c(F)ccc12)C(=O)NCc1nnc(C(N)=O)o1 [Example 365]	–	–	34.8	11.9
CC(C)(C)[C@H](NC(=O)c1nn(Cc2ccc(C#N)cc2F)c2c(F)cccc12)C(N)=O [Example 368]	4.55	2	–	–
CC(C)(C)[C@H](NC(=O)c1nn(Cc2ccc(C#N)cc2F)c2c(F)cccc12)C(=O)NC1CC1 [Example 373]	11.6	14.6	–	–
CC(C)(C)[C@H](NC(=O)c1nn(Cc2ccc(C#N)cc2F)c2c(F)c(F)ccc12)C(=O)NC1CC1 [Example 374]	12.5	7.33	–	–
CC(C)(C)[C@H](NC(=O)c1nn(Cc2ccc(C#N)cc2F)c2c(F)cccc12)C(=O)NCc1nnc(C(N)=O)o1 [Example 375]	–	–	31.4	7.92
CC(C)(C)[C@H](NC(=O)c1nn(Cc2ccc(F)cc2)c2ccccc12)C(=O)NCC(=O)NCCO [Example 376]	4.4	1.52	–	–
CCOC(=O)[C@H]1C[C@@H](NC(=O)[C@@H](NC(=O)c2nn(Cc3ccc(F)cc3)c3ccccc23)C(C)(C)C)C1 [Example 381]	–	–	26.9	15.3
CC(C)NS(=O)(=O)CCNC(=O)[C@@H](NC(=O)c1nn(Cc2ccc(F)cc2)c2ccccc12)C(C)(C)C [Example 395]	–	–	30.8	41.2
